This note sets out measurements from patent US8367695B2, “Condensed tetrahydroquinoline derivative and use thereof for medical purposes” (Mitsubishi Tanabe Pharma Corporation, priority 2007, dated 2013).

Each structure is given as a SMILES string.

In one experiment the target is T1, human recombinant mineralocorticoid receptor (MR) (Homo sapiens, UniProt P08235).
T1 construct: made in house; host or cells: insect cell Sf9 (baculovirus)
T1 sequence (P08235 1-984): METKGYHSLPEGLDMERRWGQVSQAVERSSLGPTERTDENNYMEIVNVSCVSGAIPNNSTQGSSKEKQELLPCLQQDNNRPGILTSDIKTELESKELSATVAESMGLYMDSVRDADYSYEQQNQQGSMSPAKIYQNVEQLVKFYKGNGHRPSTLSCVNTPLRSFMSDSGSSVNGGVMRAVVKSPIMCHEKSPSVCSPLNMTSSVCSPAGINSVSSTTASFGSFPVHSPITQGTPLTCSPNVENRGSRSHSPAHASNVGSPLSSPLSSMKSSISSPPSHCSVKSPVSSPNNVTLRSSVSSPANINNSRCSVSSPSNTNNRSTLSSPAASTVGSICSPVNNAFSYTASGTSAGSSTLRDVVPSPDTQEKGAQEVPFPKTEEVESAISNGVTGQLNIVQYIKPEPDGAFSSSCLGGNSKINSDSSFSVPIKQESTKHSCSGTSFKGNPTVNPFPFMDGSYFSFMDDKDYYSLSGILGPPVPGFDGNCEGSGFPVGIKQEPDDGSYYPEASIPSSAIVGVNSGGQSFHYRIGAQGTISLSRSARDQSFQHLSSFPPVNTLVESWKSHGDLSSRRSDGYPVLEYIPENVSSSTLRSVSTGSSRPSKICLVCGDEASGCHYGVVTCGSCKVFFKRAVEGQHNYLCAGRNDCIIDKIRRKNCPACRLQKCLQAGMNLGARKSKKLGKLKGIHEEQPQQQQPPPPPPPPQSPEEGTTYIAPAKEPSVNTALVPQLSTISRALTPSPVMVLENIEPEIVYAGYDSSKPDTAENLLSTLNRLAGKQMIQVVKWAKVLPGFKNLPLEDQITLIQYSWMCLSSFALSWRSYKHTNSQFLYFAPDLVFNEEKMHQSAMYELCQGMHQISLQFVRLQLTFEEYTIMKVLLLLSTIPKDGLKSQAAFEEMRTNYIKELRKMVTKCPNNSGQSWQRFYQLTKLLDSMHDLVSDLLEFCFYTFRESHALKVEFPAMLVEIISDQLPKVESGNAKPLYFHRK
Nature of the experiment: Radioactive ligand binding test, MR cytosol, [3H]-Ald.
Conditions: not given
The text has this:
Radioactive Ligand Binding Test Using Cytosols of Human Glucocorticoids Receptor, Progesterone Receptor and Mineralocorticoid Receptor
The procedures described in Neuroimmunomodulation (1994, 1, p. 66-73) and Invest. Opthalmol. Vis. Sci. (1996, 37, p. 805-813) were modified and used. In brief, cytosol preparations of human recombinant glucocorticoids receptor (GR) and human recombinant progesterone receptor-B (PRB) were purchased from Invitrogen (Carlsbad, Calif.), and a cytosol preparation of human recombinant mineralocorticoid receptor (MR) was prepared by our company (Yokohama, JP). MR cDNA was cloned into a baculovirus expression vector and expressed in insect cell Sf9. The procedures described in J. Biol. Chem. (1991, 266, p. 18072-18081), Proc. Natl. Acad. Sci. USA (1991, 88, p. 10681-10685) and Bac-to-Bac (registered trade mark) Baculovirus Expression Systems technical manual (Invitrogen) were partly modified and used as the procedures for MR gene cloning up to preparation of recombinant receptor cytosol. [^3H]-Dexamethasone (Dex, specific activity 91.0 Ci/mmol) was purchased from GE Healthcare (Buckinghamshire, UK), and [^3H]-progesterone (Prog, specific activity 103 Ci/mmol) and [3H]-aldosterone (Ald, specific activity 87.9 Ci/mmol) were each purchased from PerkinElmer (Boston, Mass.). Polypropylene round-bottomed 96 well plate was obtained from ABgene (Epsom, UK). Dimethyl Sulfoxide (DMSO) and hydrochloric acid were obtained from Kanto Chemical (TOKYO, JP). Trizma Base (Tris), Bovine Serum Albumin (BSA) and Sodium tungstate dihydrate were obtained from Sigma Chemicals (St. Louis, Mo.). Dithiothreitol (DTT) and Dextran 70 were obtained from GE Healthcare (Buckinghamshire, UK). Glycerol was obtained from Junsei Chemical (TOKYO, JP). Norit® “SX-II” was obtained from Wako Pure Chemical Industries, Ltd. (Osaka, JP). MeltiLex™, A, Printed Filtermat A and Sample Bag were obtained from PerkinElmer (Boston, Mass.).
As a buffer for GR binding assay, 25 mM Tris-HCl (4° C., pH 7.4)/1 mM EDTA·2Na/1 mM DTT/0.1% BSA was prepared and used. As buffers for PRB and MR binding assay, 10 mM Tris-HCl (4° C., pH 7.4)/1 mM DTT/0.1% BSA/10% glycerol and 20 mM Tris-HCl (4° C., pH 7.4)/1 mM EDTA·2Na/10% glycerol/20 mM sodium tungstate were respectively prepared and used. As dextran-coated charcoal (DCC) for B/F separation, 0.75% Dextran 70/0.75% Norit® SX-II/10 mM Tris-HCl (4° C., pH 7.4) was prepared and used.
Compound storage solutions (5-20 mM) were prepared using DMSO. The storage solutions were diluted with DMSO to 0.1 mM (for GR) and 0.3 mM (for PRB and MR), and further diluted 20-fold with distilled water to give solutions. Then, the preparations were diluted to each concentration with 5% DMSO solution. 1% DMSO was present at the time of the binding assay.
In the case of MR binding assay, [^3H]-Ald (about 4 nM), MR cytosol (about 1 mg/mL concentration of total protein), a test compound and a binding buffer were mixed in a total volume of 50 μL, and the mixture was stood at 4° C. for 30 min or longer. A specific binding was defined to be the difference in the [^3H]-Ald binding between the presence and the absence of 1 μM unlabeled Ald.
After the reaction, 50 μL of DCC was added to each well and blended. Thereafter, the mixture was stood at 4° C. for 10 min. The plate was applied to high-speed cooling centrifuge under the conditions of 4° C., 2000 rpm, 5 min to perform B/F separation. A given amount of the supernatant was recovered, which was spotted on Filtermat A of 96 well format (PerkinElmer) and rapidly dried at a high temperature. Then, solid scintillator MeltiLex A (PerkinElmer) was melted on Filtermat A. The mixture was placed in a Sample Bag (PerkinElmer), and the level of radioactivity was measured by plate reader 1450 Micro Beta TRILUX (PerkinElmer).
Measurement of Inhibition Constant (Ki)
Regarding `Cc1noc(C)c1-c1cc2c(c3c1OCO3)NC(C)(C)C(=O)C2(C)C` [Example 69, 4-(3,5-dimethylisoxazol-4-yl)-6,6,8,8-tetramethyl-6,7,8,9-tetrahydro-[1,3]dioxolo[4,5-h]quinolin-7-one], the Ki was > 1000 nM.
Same read-out and setting: for `CC1(C)Nc2c(cc(-c3cccc4nccn34)c3c2OC(F)(F)O3)C(C)(C)C1=O` [Example 82, 2,2-difluoro-4-(imidazo[1,2-a]pyridin-5-yl)-6,6,8,8-tetramethyl-6,7,8,9-tetrahydro-[1,3]dioxolo[4,5-h]quinolin-7-one] the value was > 1000 nM; for `CC1(C)Nc2c(cc(-c3ccnc4ncccc34)c3c2CCC3)C(C)(C)C1=O` [Example 21, 2,2,4,4-tetramethyl-6-([1,8]naphthyridin-4-yl)-2,3,4,7,8,9-hexahydro-1H-cyclopenta[h]quinolin-3-one], > 1000 nM.
Consider `C=CCC1(C)C(=O)C(C)(C)Nc2c1cc(-c1cccc3cc[nH]c13)c1c2OCO1` (centres unmarked) [Example 78, 6-allyl-4-(1H-indol-7-yl)-6,8,8-trimethyl-6,7,8,9-tetrahydro-[1,3]dioxolo[4,5-h]quinolin-7-one], for which the Ki is > 1000 nM.
As for `CC1(C)Nc2c(cc(-c3cccc4nccn34)c3c2OCO3)C(C)(C)C1=O` [Example 71, 4-(imidazo[1,2-a]pyridin-5-yl)-6,6,8,8-tetramethyl-6,7,8,9-tetrahydro-[1,3]dioxolo[4,5-h]quinolin-7-one], the Ki was > 1000 nM.
On the same count and under the same terms, then `CC1(C)Nc2c(cc(-c3cccc4ncccc34)c3c2CCC3)C(C)(C)C1=O` [Example 20, 2,2,4,4-tetramethyl-6-(quinolin-5-yl)-2,3,4,7,8,9-hexahydro-1H-cyclopenta[h]quinolin-3-one], with > 1000 nM; and `CC1(C)Nc2c(cc(-c3cccc4nccn34)c3c2CCC3)C(C)(C)C1=O` [Example 14, 6-(imidazo[1,2-a]pyridin-5-yl)-2,2,4,4-tetramethyl-2,3,4,7,8,9-hexahydro-1H-cyclopenta[h]quinolin-3-one], with > 1000 nM.
Regarding `C=CCC1(C)C(=O)C(C)(C)Nc2c1cc(-c1ccc(O)cc1C)c1c2CCC1` (centres unmarked) [Example 50, 4-allyl-6-(4-hydroxy-2-methylphenyl)-2,2,4-trimethyl-2,3,4,7,8,9-hexahydro-1H-cyclopenta[h]quinolin-3-one], the Ki is > 1000 nM.
Turning to `CC1(C)Nc2c(cc(-c3cccc4nncn34)c3c2CCC3)C(C)(C)C1=O` [Example 17, 2,2,4,4-tetramethyl-6-([1,2,4]triazolo[4,3-a]pyridin-5-yl)-2,3,4,7,8,9-hexahydro-1H-cyclopenta[h]quinolin-3-one], the Ki is > 1000 nM.
The same measure, in the same setting: for `Cc1noc(C)c1-c1cc2c(c3c1CCC3)NC(C)(C)C(=O)C2(C)C` [Example 2, 6-(3,5-dimethylisoxazol-4-yl)-2,2,4,4-tetramethyl-2,3,4,7,8,9-hexahydro-1H-cyclopenta[h]quinolin-3-one] the value was > 1000 nM; for `C=C1C(C)(C)Nc2c(cc(-c3c(C)ncn3C)c3c2CCC3)C1(C)C` [Example 29, 6-(3,5-dimethyl-3H-imidazol-4-yl)-2,2,4,4-tetramethyl-3-methylene-2,3,4,7,8,9-hexahydro-1H-cyclopenta[h]quinoline], > 1000 nM; for `CC#CCC1(C)C(=O)C(C)(C)Nc2c1cc(-c1cccc3nccn13)c1c2CCC1` (centres unmarked) [Example 63, 4-(2-butynyl)-6-(imidazo[1,2-a]pyridin-5-yl)-2,2,4-trimethyl-2,3,4,7,8,9-hexahydro-1H-cyclopenta[h]quinolin-3-one], > 1000 nM.
On to `CC1(C)Nc2c(cc(-c3cccc4ncccc34)c3c2OCO3)C(C)(C)C1=O` [Example 72, 6,6,8,8-tetramethyl-4-(quinolin-5-yl)-6,7,8,9-tetrahydro-[1,3]dioxolo[4,5-h]quinolin-7-one], for which the Ki was > 1000 nM.
Still for that read-out and setting: then `C=CCC1(C)C(=O)C(C)(C)Nc2c1cc(-c1cccc3nccn13)c1c2CCC1` (centres unmarked) [Example 57, 4-allyl-6-(imidazo[1,2-a]pyridin-5-yl)-2,2,4-trimethyl-2,3,4,7,8,9-hexahydro-1H-cyclopenta[h]quinolin-3-one], with > 1000 nM.
Same read-out and setting: then `C=CCC1(C)C(=O)C(C)(C)Nc2c1cc(-c1c(C)noc1C)c1c2CCC1` (centres unmarked) [Example 51, 4-allyl-6-(3,5-dimethylisoxazol-4-yl)-2,2,4-trimethyl-2,3,4,7,8,9-hexahydro-1H-cyclopenta[h]quinolin-3-one], with > 1000 nM; and `CC1(C)Nc2c(cc(-c3ccnc4cc[nH]c34)c3c2CCC3)C(C)(C)C1=O` [Example 13, 2,2,4,4-tetramethyl-6-(1H-pyrrolo[3,2-b]pyridin-7-yl)-2,3,4,7,8,9-hexahydro-1H-cyclopenta[h]quinolin-3-one], with > 1000 nM.

The experiment is the same for the next values; noted with them: [3H]-Ald about 4 nM, MR cytosol (Sf9), 4° C.; Cheng-Prusoff, Kd about 2.0 nM; read-out: MR (Ki: nM).
As to `CCC1(C)C(=O)C(C)(C)Nc2c1cc(-c1cccc3nccn13)c1c2CCC1` (centres unmarked) [Example 58, 4-ethyl-6-(imidazo[1,2-s]pyridin-5-yl)-2,2,4-trimethyl-2,3,4,7,8,9-hexahydro-1H-cyclopenta[h]quinolin-3-one], the inhibition constant Ki is > 1000 nM.

As usually defined, the Ki is a dissociation constant, usually derived from enzyme kinetics or from competition with a known ligand.
